The source of these data is patent publication US7388006B2, “Non-steroidal progesting” (Bayer Schering Pharma AG, priority 2002, dated 2008).

One assay deals with rat mammary epithelium. Description: Bioassay on proliferating/differentiating effects in the rat mammary epithelium (whole mount staining, terminal and alveolar endbuds). The class given is in vivo. An excerpt:
The object of this test is to evaluate the effect of progestins on the development of the mammary gland, in particular on the formation of terminal end-buds in the mammary gland in estrogen primed rats. Progestins together with other hormones (prolactin, estrogens, glucocorticoids, growth hormones etc.) induce proliferation and differentiation of the mammary glandular epithelium. In particular, they are involved in the morphogenesis of alveolar and terminal end buds, the sites of milk protein production and secretion into the ductal lumen.
In order to determine the effects of test progestins according to the present invention, in particular compound ((+)-1), in mammary gland differentiation and proliferation, premature female rats (Wistar Han, SPF) are ovariectomized at the age of 21 days, 4 to 6 days before treatment start. The animals are treated for 6 days with standard estrogen (estrone (E1), 70 μg/kg) and the test progestin ((+)-1) (application volume: 0.1 ml/50 g body weight; vehicle: benzylbenzoate/castor oil (1+4 v/v); subcutaneous). Control groups are e.g.: vehicle, estrone without progestin, estradiol together with a known progestin, e.g. R5020 (promegestone). After the 6-day treatment the animals are killed with carbon dioxide.
For the whole mount staining, animals are shaved in the left abdominal inguinal mammary region, which is cut from the body together with the skin. For the histological/immunohistochemical analyses the right abdominal inguinal mammary gland is cut from the body together with the connective-tissue adhered thereto and fixed in 3.7% formalin in PBS (phosphate buffer saline; without Ca^2+/Mg^2+).
The preparations are fixed over night in alcohol-formalin according to the method of Tellyesniczky (see below). Then the mammary gland tissue and subcutis adhered thereto are stripped from the cutis and the preparations are again fixed over night. The further steps are as follows: ethanol 70%: 1.5 hours; acetone: 3×1.5 hours; acetone: over night; isopropanol: 1.5 hours; ethanol 96%: 2 hours; hematoxylin-iron: 3 hours; VE water: first rinse the preparations and then 2×0.5 hours; ethanol 70%: over night; ethanol 80%: 1.5 hours; ethanol 96%: 1.5 hours; isopropanol: 1.5 hours. The preparations are then moved to petri dishes and left in toluene for approximately 1 hour, i.e. until they have stopped to swim up. Then the preparations are treated with cedarwood oil (Merck, no. 1.06965). The incubation times above are minimum times and can be extended. In particular, incubation in ethanol 70% after fixation can be extended to at least 2.5 weeks.
Preparation of the solutions necessary for the whole mount staining: • a) Alcohol-formalin according to Tellyesniczky: formaldehyde 37%: 81.8 ml, ethanol 70%: 1636 ml, glacial acetic acid (to be added shortly before use): 81.8 ml (total: 1800 ml). • b) Hematoxylin mother solution: Hematoxylin (Merck, no. 1.15938): 10 g, ethanol 96%: 100 ml. The solution must stand for 48 hours at 37° C. before use. […]
By means of a 40-fold magnification, the terminal end buds near the nipple in direction of the tail are counted. […] For well-differentiated preparations this area may be reduced, with at least 250 buds to be counted. After counting, the number of end buds per 1 mm^2 is calculated.
The number of terminal and alveolar endbuds is counted per mm^2 +/− standard deviation (SD). […]

For assay [1], the system named is uterine growth in ovariectomized estradiol-treated rats. Description: Antiuterotropic activity in the rat (uterine weight, epithelial height). The class given is in vivo. The following applies: for Functional antiestrogenic effect (uterine weight gain, epithelial cell height): 3 days. An excerpt: Compounds with estrogenic activity induce uterine growth, resulting in an increase in uterine weight. They also induce a characteristic change of the appearance of the endometrial epithelium as indicated by an increase in epithelial height. PR modulators counteract estrogenic activity by inhibiting uterine weight gain and epithelial cell proliferation. This effect is sometimes referred to as “functional antiestrogenic” effect.
To test for antiuterotropic activity of the most preferred progestin according to the present invention, i.e., compound ((+)-1), ovariectormized rats are treated for 3 days with 0.3 μg/kg/d estradiol (E2) and in addition with increasing doses of ((+)-1) (cf. FIG. 4). Each test group shown in FIG. 4 consists of 10 rats, with the exception of one group (cf. FIG. 4, bottom diagram, 150 μg/kg of ((+)-1)), indicated by “#”), which consists of nine rats.
Changes in uterine weight, luminal epithelial height and the status of cell proliferation and keratinization of the vaginal smear servs as parameters for estrogenic activity. In combination with ((+)-1), decreases in estrogen-stimulated uterine weight gain and luminal epithelial height are parameters for antiestrogenic activity (cf. FIG. 4).
For the reference group (estradiol (E2)-treated), stimulation of the uterine weight and the luminal epithelial height in comparison to the vehicle control was calculated as follows: […]
In the antiestrogen assay, inhibition of uterine weight or luminal epithelial height in comparison to the effect seen with the reference compound (estradiol) was calculated as follows: […]
For statistical analysis, the 95% confidence interval was calculated using a software which was developed by the Biostatistical Department of Schering AG. The asterisks indicate a significant difference (p<0.05).

Assay [2] has as its target T1, estrogen receptor-α (ERα) (Homo sapiens, UniProt P03372).
T1 sequence (P03372 1-595): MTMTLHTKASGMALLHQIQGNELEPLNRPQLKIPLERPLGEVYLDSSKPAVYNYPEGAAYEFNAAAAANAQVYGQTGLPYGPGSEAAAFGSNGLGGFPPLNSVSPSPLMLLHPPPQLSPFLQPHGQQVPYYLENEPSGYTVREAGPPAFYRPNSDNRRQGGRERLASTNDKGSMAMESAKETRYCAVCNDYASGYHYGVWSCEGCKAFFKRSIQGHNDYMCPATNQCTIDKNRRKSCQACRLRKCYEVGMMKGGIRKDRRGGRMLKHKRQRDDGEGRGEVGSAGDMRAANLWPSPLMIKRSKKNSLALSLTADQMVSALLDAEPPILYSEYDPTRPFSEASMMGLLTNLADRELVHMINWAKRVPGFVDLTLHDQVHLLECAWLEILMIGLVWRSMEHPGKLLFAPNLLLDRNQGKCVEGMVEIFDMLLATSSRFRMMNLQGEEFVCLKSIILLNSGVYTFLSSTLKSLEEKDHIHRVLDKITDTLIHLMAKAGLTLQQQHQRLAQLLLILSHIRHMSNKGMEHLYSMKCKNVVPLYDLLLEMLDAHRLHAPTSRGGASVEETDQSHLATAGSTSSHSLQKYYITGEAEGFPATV
Nature of the assay: Binding to the estrogen receptor-α in vitro.

In the case of `O=C1OCc2cc(NC(=O)C(O)(CC3(c4cc(C(F)(F)F)ccc4F)CC3)C(F)(F)F)ccc21` (single isomer, unassigned; (+)) [((+)-1), (+)-5-{2-hydroxy-3-[1-(2-fluoro-5-trifluoromethylphenyl)-cyclopropyl]-2-trifluoromethyl-propionylamino}-phthalide], in the assay with rat mammary epithelium (FIG. 3), the “Threshold value for the induction of terminal and alveolar endbuds” value amounted to 100 µg/kg/day. The “Terminal and alveolar end bud formation, result in words” value in the assay with rat mammary epithelium (at doses where pregnancy is fully maintained) is “no effects on terminal and alveolar end bud formation can be observed”. Moreover, in the assay on rat mammary epithelium (induction of terminal and alveolar endbuds), the “Mammary gland, whole mount staining (rat) [threshold value]” value was determined as 0.1 mg/kg/day. Besides, the “Mammary gland, whole mount staining, factor compared to R5020” value in the assay on rat mammary epithelium (median of three tests) is reported as “ca. 1”. Also, in the assay on rat mammary epithelium (pregnancy maintenance versus mammary gland), the “Dissociation in favor of uterotropic activity (uterus versus mammary gland)” value is given as “at least six fold”. The “Functional antiestrogenic effect (uterine weight gain, epithelial cell height)” value in assay [1] (5 μg/kg/d with estradiol) is “submaximum effect”; in assay [1] (15 μg/kg/d with estradiol), “Maximum effect”. Besides, the “Functional antiestrogenic effect, in words” value in assay [1] (in combination with estradiol, FIG. 4) is “strong functional antiestrogenic effect”. For the same molecule, the “Affinity for the estrogen receptor-α (ERα)” value in assay [2] is on record as “negligible affinity”.
